Columns and labels:
[1] = Forced degradation study (solid state stability) of Tafamidis Form C1; format: physicochemical
Excerpt: Forced degradation is synonymous with stress testing and purposeful degradation. Purposeful degradation can be a useful tool to predict the stability of a drug substance or a drug product with effects on purity, potency, and safety. It is imperative to know the impurity profile and behavior of a drug substance under various stress conditions. Forced degradation also plays an important role in the development of analytical methods, setting specifications, and design of formulations under the quality-by-design (QbD) paradigm. The nature of the stress testing depends on the individual drug substance and the type of drug product (e.g., solid oral dosage, lyophilized powders, and liquid formulations) involved.
A forced degradation study was performed to generate potential degradation products and assess stability liabilities. Tafamidis form C1 prepared as per the present disclosure was subjected to forced degradation study with below specified conditions. […] The samples were analysed at pre-determined time intervals for PXRD, HPLC purity and water content. […] The forced degradation results for Tafamidis Form C1 are tabulated below in Table 1.

[2] = Indicative stability of Tafamidis Form C1 on storage up to 6 months; format: physicochemical
Experimental: The stability of Tafamidis form C1 prepared as per the present disclosure was studied by storing the samples at 2-8° C., 25° C./60% RH; and 40° C./75% RH storage conditions upto 6 months. The samples were analysed for PXRD, HPLC purity and water content at pre-determined time intervals of 1M, 2M, 3M and 6M.
The stability data collected after 6 months of storage are tabulated below in Table 2.

O=C(O)c1ccc2nc(-c3cc(Cl)cc(Cl)c3)oc2c1 [Form C1, 2-(3,5-Dichlorophenyl)-1,3-benzoxazole-6-carboxylic acid]
Description ([1]; 0 D, Initial): off-white powder | HPLC Purity ([1]; 0 D, Initial): 99.98 | PXRD ([1]; 0 D, Initial): Form C1 | Water content KF ([1]; 0 D, Initial): 0.57% | Description ([1]; 5 D, 60°C/80% RH): off-white powder | HPLC Purity ([1]; 5 D, 60°C/80% RH): 99.97 | Water content KF ([1]; 5 D, 60°C/80% RH): 0.62% | Description ([1]; 6 Hours (DHS), 105° C.): off-white powder | HPLC Purity ([1]; 6 Hours (DHS), 105° C.): 99.98 | Description ([1]; 6 Hours, 120° C.): off-white powder | HPLC Purity ([1]; 6 Hours, 120° C.): 99.99 | Description ([1]; 7 D, 25° C./60% RH Closed cup): off-white powder | HPLC Purity ([1]; 7 D, 25° C./60% RH Closed cup): 99.98 | Water content KF ([1]; 7 D, 25° C./60% RH Closed cup): 0.42% | Description ([1]; 7 D, 25° C./60% RH Open cup): off-white powder | HPLC Purity ([1]; 7 D, 25° C./60% RH Open cup): 99.98 | Water content KF ([1]; 7 D, 25° C./60% RH Open cup): 0.48% | Description ([1]; 7 D, 40° C./75% RH Closed cup): off-white powder | HPLC Purity ([1]; 7 D, 40° C./75% RH Closed cup): 99.98 | Water content KF ([1]; 7 D, 40° C./75% RH Closed cup): 0.45% | Description ([1]; 7 D, 40° C./75% RH Open cup): off-white powder | HPLC Purity ([1]; 7 D, 40° C./75% RH Open cup): 99.98 | Water content KF ([1]; 7 D, 40° C./75% RH Open cup): 0.72% | Description ([1]; 10 TORR): off-white powder | HPLC Purity ([1]; 10 TORR): 99.99 | degradation under stress conditions ([1]; any of the stress conditions): did not show any degradation | change with respect to PXRD, HPLC purity and water content ([1]; forced degradation, all conditions of Table 1): no significant change | Description ([2]; 0, Initial): Off-white colour | HPLC Purity ([2]; 0, Initial): 99.99 | PXRD ([2]; 0, Initial): Form C1 | Water content KF ([2]; 0, Initial): 0.34% | Description ([2]; 1 month, 2-8° C.): Off-white colour | HPLC Purity ([2]; 1 month, 2-8° C.): 99.98 | Water content KF ([2]; 1 month, 2-8° C.): 0.88% | Description ([2]; 1 month, 25° C./60% RH): Off-white colour | HPLC Purity ([2]; 1 month, 25° C./60% RH): 99.98 | Water content KF ([2]; 1 month, 25° C./60% RH): 0.85% | Description ([2]; 1 month, 40° C./75% RH): Off-white colour | HPLC Purity ([2]; 1 month, 40° C./75% RH): 99.99 | Water content KF ([2]; 1 month, 40° C./75% RH): 0.8% | Description ([2]; 2 months, 2-8° C.): Off-white colour | HPLC Purity ([2]; 2 months, 2-8° C.): 99.98 | Water content KF ([2]; 2 months, 2-8° C.): 0.63% | Description ([2]; 2 months, 25° C./60% RH): Off-white colour | HPLC Purity ([2]; 2 months, 25° C./60% RH): 99.98 | Water content KF ([2]; 2 months, 25° C./60% RH): 0.68% | Description ([2]; 2 months, 40° C./75% RH): Off-white colour | HPLC Purity ([2]; 2 months, 40° C./75% RH): 99.98 | Water content KF ([2]; 2 months, 40° C./75% RH): 0.78% | Description ([2]; 3 months, 2-8° C.): Off-white colour | HPLC Purity ([2]; 3 months, 2-8° C.): 99.98 | Water content KF ([2]; 3 months, 2-8° C.): 1.02% | Description ([2]; 3 months, 25° C./60% RH): Off-white colour | HPLC Purity ([2]; 3 months, 25° C./60% RH): 99.98 | Water content KF ([2]; 3 months, 25° C./60% RH): 0.92% | Description ([2]; 3 months, 40° C./75% RH): Off-white colour | HPLC Purity ([2]; 3 months, 40° C./75% RH): 99.98 | Water content KF ([2]; 3 months, 40° C./75% RH): 0.85% | Description ([2]; 6 months, 2-8° C.): Off-white colour | HPLC Purity ([2]; 6 months, 2-8° C.): 99.98 | Water content KF ([2]; 6 months, 2-8° C.): 0.79% | Description ([2]; 6 months, 25° C./60% RH): Off-white colour | HPLC Purity ([2]; 6 months, 25° C./60% RH): 99.98 | Water content KF ([2]; 6 months, 25° C./60% RH): 0.61% | Description ([2]; 6 months, 40° C./75% RH): Off-white colour | HPLC Purity ([2]; 6 months, 40° C./75% RH): 99.98 | Water content KF ([2]; 6 months, 40° C./75% RH): 0.65% | change with respect to PXRD, HPLC purity and water content ([2]; all the storage conditions (2-8° C., 25° C./60% RH, 40° C./75% RH) up to 6 months): no significant change

Source: US20240059661A1, “SOLID STATE FORMS OF 2-(3,5-DICHLOROPHENYL)-1,3-BENZOXAZOLE-6-CARBOXYLIC ACID OR ITS PHARMACEUTICALLY ACCEPTABLE SALTS AND POLYMORPHS THEREOF” (CIPLA LIMITED, priority 2021, published 2024)
